pIC50: −log10 of the molar value. *1 amine or outer side, *2 acyl side, *3 side chain or, on linkers, in order; H or OH if unused. Where a SMILES comes first, the peptide text is derived from it. Where no end group is shown, it is not given here. [ ]: non-standard residue; d: D form. The star is where a group is joined. Isoquinolin(3-yl)carbonyl = O=C(c1cc2ccccc2cn1)*; X16 = CCCCCN([C@@H](Cc1ccccc1)C(=O)[*:2])[*:1]; 2Naphthylsulfonyl = O=S(=O)(c1ccc2ccccc2c1)*; Quinoxaline2carbonyl = O=C(c1cnc2ccccc2n1)*; Quinoline3carbonyl = O=C(c1cnc2ccccc2c1)*; X6 = CCCCCN(CCCCC)[C@@H](Cc1ccccc1)C(=O)*; Butanoyl(2-OPh) = CCC(Oc1ccccc1)C(=O)*; X5 = CCCCCN(C)[C@@H](Cc1ccccc1)C(=O)*; X4 = CCCCCN1Cc2ccccc2C[C@H]1C(=O)*; NMeR = CN[C@@H](CCCNC(=N)N)C(=O)O; Quinaldoyl = O=C(c1ccc2ccccc2n1)*; hArg = N=C(N)NCCCC[C@H](N)C(=O)O; Cha = N[C@@H](CC1CCCCC1)C(=O)O; dCha = N[C@H](CC1CCCCC1)C(=O)O; X2 = O=C(Cc1c[nH]c2ccccc12)*; X8 = O=C(C1CCc2ccccc2C1)*; Orn = NCCC[C@H](N)C(=O)O
Target: T1, thrombin receptor (Homo sapiens, UniProt P25116)
T1 construct: washed human platelets are prepared from blood drawn from healthy volunteers; endogenous in cells; host or cells: washed human platelets from healthy volunteers
T1 sequence (P25116 22-425): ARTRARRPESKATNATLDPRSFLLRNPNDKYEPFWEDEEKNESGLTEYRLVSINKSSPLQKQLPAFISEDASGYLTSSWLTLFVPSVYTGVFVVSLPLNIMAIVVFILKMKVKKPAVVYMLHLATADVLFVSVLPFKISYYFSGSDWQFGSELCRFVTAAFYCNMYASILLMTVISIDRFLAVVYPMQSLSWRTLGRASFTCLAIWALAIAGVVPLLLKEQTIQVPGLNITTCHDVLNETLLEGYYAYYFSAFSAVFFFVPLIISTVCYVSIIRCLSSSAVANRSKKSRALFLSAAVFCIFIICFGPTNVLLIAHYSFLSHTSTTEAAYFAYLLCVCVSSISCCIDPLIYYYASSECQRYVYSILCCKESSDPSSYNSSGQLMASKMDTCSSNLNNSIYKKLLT
Assay: Platelet aggregation assay for thrombin receptor antagonist activity (washed human platelets stimulated with α-thrombin)
Format: cell-based
Details: not given
Protocol: The compounds of the present invention may be tested for thrombin receptor antagonist activity by using a platelet aggregation assay. In this assay, washed human platelets are prepared from blood drawn from healthy volunteers who have not ingested any medications for two weeks prior to donation. Blood is drawn into 12.5% (vol/vol) ACD (85 mM sodium citrate, 111 mM dextrose, 71 mM citric acid) containing 0.1% (vol/vol) PGI2 (0.05 mg/mL PGI2, 100 mM Tris, pH 12). Platelet-rich plasma was obtained by centrifugation at 160×g for 20 minutes. The platelets were pelleted by centrifugation at 760×g for 10 minutes and resuspended in CGS (13 mM trisodium citrate, 120 mM sodium chloride, 30 mM dextrose, pH 7.0) containing 0.1% (vol/vol) PGI2, repelleted and resuspended in Tyrodes buffer (10 mM Hepes, 12 mM sodium bicarbonate, 138 mM sodium chloride, 5.5 mM glucose, 2.9 mM potassium chloride, 1.0 mM calcium chloride, pH 7.4) and stored at 37° C. Approximately 0.4-10 nM α-thrombin is used to stimulate platelet aggregation in control reactions which are monitored by aggregometry using an aggregometer. Candidate antagonists are added to the platelet mixture followed by the addition of thrombin in order to assess their ability to prevent thrombin-mediated aggregation.
Platelet aggregation can also be measured with washed platelets in 96-well microtiter plates as described in Fratantoni, J. C. et al., Am. J. Clin. Pathol. 94:613-617 (1990). The ability of the antagonists to block the thrombin receptor was assessed in this assay using various concentrations of antagonists. The concentration at which 50% inhibition of platelet aggregation is achieved is defined as IC50.

Row | Compound | pIC50
1 | N=C(N)NCCC[C@H](NC(=O)[C@H](CC1CCCCC1)NC(=O)[C@H](CC1CCCCC1)NC(=O)c1cc2ccccc2cn1)C(=O)N[C@@H](CCCCN)C(N)=O [Compound 32] ({Isoquinolin(3-yl)carbonyl}-[Cha][Cha]RK-NH2) | 4.82
2 | CCCCCN(C)[C@@H](Cc1ccccc1)C(=O)N[C@@H](CC1CCCCC1)C(=O)N[C@H](CC1CCCCC1)C(=O)N[C@@H](CCCNC(=N)N)C(=O)N[C@@H](CCCCN)C(N)=O [Compound 43] (X5-[Cha][dCha]RK-NH2) | 4.82

Same assay, conditions: washed human platelets, thrombin-mediated aggregation; read-out: IC50 (concentration at which 50% inhibition of platelet aggregation is achieved)

Row | Compound | pIC50
3 | N=C(N)NCCC[C@H](NC(=O)[C@H](CC1CCCCC1)NC(=O)[C@H](CC1CCCCC1)NC(=O)c1ccc2ccccc2n1)C(=O)N[C@@H](CCCCN)C(N)=O [Compound 28] (Quinaldoyl-[Cha][Cha]RK-NH2) | 4.52
4 | N=C(N)NCCC[C@H](NC(=O)[C@H](CC1CCCCC1)NC(=O)[C@H](CC1CCCCC1)NC(=O)c1cnc2ccccc2c1)C(=O)N[C@@H](CCCCN)C(N)=O [Compound 29] (Quinoline3carbonyl-[Cha][Cha]RK-NH2) | < 3.70
5 | N=C(N)NCCC[C@H](NC(=O)[C@H](CC1CCCCC1)NC(=O)[C@H](CC1CCCCC1)NC(=O)Cc1c[nH]c2ccccc12)C(=O)N[C@@H](CCCCN)C(N)=O [Compound 30] (X2-[Cha][Cha]RK-NH2) | 4.70
6 | N=C(N)NCCC[C@H](NC(=O)[C@H](CC1CCCCC1)NC(=O)[C@H](CC1CCCCC1)NC(=O)C1CCc2ccccc2C1)C(=O)N[C@@H](CCCCN)C(N)=O (stereo partly shown) [Compound 31] (X8-[Cha][Cha]RK-NH2) | < 3.70
7 | N=C(N)NCCC[C@H](NC(=O)[C@H](CC1CCCCC1)NC(=O)[C@H](CC1CCCCC1)NC/C=C/c1ccccc1)C(=O)N[C@@H](CCCCN)C(N)=O [Compound 33] | 5.30
8 | C/C(=C\c1ccccc1)CN[C@@H](CC1CCCCC1)C(=O)N[C@@H](CC1CCCCC1)C(=O)N[C@@H](CCCNC(=N)N)C(=O)N[C@@H](CCCCN)C(N)=O [Compound 34] | 4.82
9 | CC/C(=C\c1ccccc1)CN[C@@H](CC1CCCCC1)C(=O)N[C@@H](CC1CCCCC1)C(=O)N[C@@H](CCCNC(=N)N)C(=O)N[C@@H](CCCCN)C(N)=O [Compound 35] | 4.70
10 | CC(COc1ccccc1)N[C@@H](CC1CCCCC1)C(=O)N[C@@H](CC1CCCCC1)C(=O)N[C@@H](CCCNC(=N)N)C(=O)N[C@@H](CCCCN)C(N)=O (stereo partly shown) [Compound 36] | 5.12
11 | N=C(N)NCCC[C@H](NC(=O)[C@H](CC1CCCCC1)NC(=O)[C@H](CC1CCCCC1)NC(=O)c1cnc2ccccc2n1)C(=O)N[C@@H](CCCCN)C(N)=O [Compound 37] (Quinoxaline2carbonyl-[Cha][Cha]RK-NH2) | < 4.00
12 | N=C(N)NCCC[C@H](NC(=O)[C@H](CC1CCCCC1)NC(=O)[C@H](CC1CCCCC1)NS(=O)(=O)c1ccc2ccccc2c1)C(=O)N[C@@H](CCCCN)C(N)=O [Compound 38] (2Naphthylsulfonyl-[Cha][Cha]RK-NH2) | 5.00
13 | CCCCCN1Cc2ccccc2C[C@H]1C(=O)N[C@@H](CC1CCCCC1)C(=O)N[C@@H](CC1CCCCC1)C(=O)N(C)[C@@H](CCCNC(=N)N)C(=O)N[C@@H](CCCNC(=N)N)C(N)=O [Compound 39] (X4-[Cha][Cha][NMeR]R-NH2) | 5.10
14 | CCCCCN(CCCCC)[C@@H](Cc1ccccc1)C(=O)N[C@@H](CC1CCCCC1)C(=O)N[C@H](CC1CCCCC1)C(=O)N[C@@H](CCCNC(=N)N)C(=O)N[C@@H](CCCCN)C(N)=O [Compound 42] (X6-[Cha][dCha]RK-NH2) | 5.70
15 | CCCCCN[C@@H](Cc1ccccc1)C(=O)N[C@@H](CC1CCCCC1)C(=O)N[C@H](CC(C)C)C(=O)N[C@@H](CCCNC(=N)N)C(=O)N[C@@H](CCCCN)C(N)=O [Compound 44] (H-[X16][Cha][dL]RK-NH2) | 5.30
16 | CCCCCN[C@@H](Cc1ccccc1)C(=O)N[C@H](CC(C)C)C(=O)N[C@@H](CC1CCCCC1)C(=O)N[C@@H](CCCNC(=N)N)C(=O)N[C@@H](CCCCN)C(N)=O [Compound 45] (H-[X16][dL][Cha]RK-NH2) | 5.30
17 | CCC(Oc1ccccc1)C(=O)N[C@@H](Cc1ccccc1)C(=O)N[C@@H](CC1CCCCC1)C(=O)N[C@@H](CCCNC(=N)N)C(=O)N[C@@H](CCCCN)C(N)=O (stereo partly shown) [Compound 46] ({Butanoyl(2-OPh)}-F[Cha]RK-NH2) | 4.82
18 | CCC(Oc1ccccc1)C(=O)N[C@@H](CC1CCCCC1)C(=O)N[C@@H](CC1CCCCC1)C(=O)N[C@@H](CCCCNC(=N)N)C(=O)N[C@@H](CCCCN)C(N)=O (stereo partly shown) [Compound 47] ({Butanoyl(2-OPh)}-[Cha][Cha][hArg]K-NH2) | 5.60
19 | CCC(Oc1ccccc1)C(=O)N[C@@H](CC1CCCCC1)C(=O)N[C@@H](CC1CCCCC1)C(=O)N[C@@H](CCCNC(=N)N)C(=O)N[C@@H](CCCN)C(N)=O (stereo partly shown) [Compound 48] ({Butanoyl(2-OPh)}-[Cha][Cha]R[Orn]-NH2) | 5.00
20 | CCC(Oc1ccccc1)C(=O)N[C@@H](CC1CCCCC1)C(=O)N[C@@H](CC1CCCCC1)C(=O)N[C@@H](CCCCN)C(=O)N[C@@H](CCCCN)C(N)=O (stereo partly shown) [Compound 49] ({Butanoyl(2-OPh)}-[Cha][Cha]KK-NH2) | 4.12
21 | CCC(Oc1ccccc1)C(=O)N[C@@H](CC1CCCCC1)C(=O)N[C@@H](CC1CCCCC1)C(=O)N[C@@H](CCCN)C(=O)N[C@@H](CCCCN)C(N)=O (stereo partly shown) [Compound 50] ({Butanoyl(2-OPh)}-[Cha][Cha][Orn]K-NH2) | 4.00
22 | CCC(Oc1ccccc1)C(=O)N[C@@H](CC1CCCCC1)C(=O)N[C@@H](CC1CCCCC1)C(=O)N[C@@H](CCCNC(=N)N)C(=O)N[C@@H](CCCNC(=N)N)C(N)=O (stereo partly shown) [Compound 51] ({Butanoyl(2-OPh)}-[Cha][Cha]RR-NH2) | 5.60
23 | CCC(Oc1ccccc1)C(=O)N[C@@H](CC1CCCCC1)C(=O)N[C@@H](CC1CCCCC1)C(=O)N[C@@H](CCCNC(=N)N)C(=O)N[C@H](CCCCN)C(N)=O (stereo partly shown) [Compound 52] ({Butanoyl(2-OPh)}-[Cha][Cha]R[dK]-NH2) | 4.82
24 | CCC(Oc1ccccc1)C(=O)N[C@@H](CC1CCCCC1)C(=O)N[C@@H](CC1CCCCC1)C(=O)N(C)[C@@H](CCCNC(=N)N)C(=O)N[C@@H](CCCCN)C(N)=O (stereo partly shown) [Compound 53] ({Butanoyl(2-OPh)}-[Cha][Cha][NMeR]K-NH2) | 5.70
25 | CCC(Oc1ccccc1)C(=O)N[C@@H](CC1CCCCC1)C(=O)N[C@@H](CC1CCCCC1)C(=O)N(C)[C@@H](CCCNC(=N)N)C(=O)N[C@@H](CCCNC(=N)N)C(N)=O (stereo partly shown) [Compound 54] ({Butanoyl(2-OPh)}-[Cha][Cha][NMeR]R-NH2) | 6.30
26 | CCC(Oc1ccccc1)C(=O)N[C@@H](CC1CCCCC1)C(=O)N[C@@H](CC1CCCCC1)C(=O)N[C@@H](CCCCNC(=N)N)C(=O)N[C@@H](CCCNC(=N)N)C(N)=O (stereo partly shown) [Compound 55] ({Butanoyl(2-OPh)}-[Cha][Cha][hArg]R-NH2) | 6.00
27 | CCC(Oc1ccccc1)C(=O)N[C@@H](Cc1ccccc1)C(=O)N[C@@H](CC1CCCCC1)C(=O)N[C@@H](CCCCNC(=N)N)C(=O)N[C@@H](CCCNC(=N)N)C(N)=O (stereo partly shown) [Compound 57] ({Butanoyl(2-OPh)}-F[Cha][hArg]R-NH2) | 5.70
28 | CCC(Oc1ccccc1)C(=O)N[C@@H](CC1CCCCC1)C(=O)N[C@@H](CC1CCCCC1)C(=O)NCc1ccncc1 (stereo partly shown) [Compound 58] | < 4.00
29 | CCC(Oc1ccccc1)C(=O)N[C@@H](CC1CCCCC1)C(=O)N[C@@H](CC1CCCCC1)C(=O)NCCCN1CCN(CCCN)CC1 (stereo partly shown) [Compound 59] | 4.05
30 | CCC(Oc1ccccc1)C(=O)N[C@@H](CC1CCCCC1)C(=O)N[C@@H](CC1CCCCC1)C(=O)NCCCN(C)C (stereo partly shown) [Compound 60] | 4.60

Target: T2, platelet thrombin receptors (Homo sapiens, UniProt P25116)
T2 construct: host or cells: platelets
T2 sequence (P25116 22-425): T1 sequence (P25116 22-425)
Assay: not given
Details: platelet thrombin receptors activated with either thrombin or agonist peptides; cited from earlier work

Row | Compound | thrombin receptor antagonist activity
31 | Phe-Leu-Leu-Arg-Asn-OH (FLLRN-OH) [pentapeptide based on a portion of the agonist peptide minimum structure] | weak antagonist

Source: patent US5866681A, “Thrombin receptor antagonists” (priority 1995, dated 1999)
